{"source": "patent US9302999B2", "about": "“Substituted triazoles as herbicides” (E. I. DU PONT DE NEMOURS AND COMPANY, priority 2012, dated 2016)", "type_in_all_cases": "in vivo", "key": {"[1]": {"system": "buckwheat, wild (wild buckwheat, Polygonum convolvulus)", "test": "Test D pre-/postemergence: buckwheat, wild", "method_in_brief": "(§1)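 Visual 0–100 rating versus untreated controls (0 no effect, 100 complete control), taken 14 to 21 days after treatment in a controlled growth environment. Preemergence: silt loam soil. Postemergence: peat moss/vermiculite medium, plants 2 to 18 cm, 1- to 4-leaf stage. Solvent mixture with surfactant.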"}, "[2]": {"system": "chamomile (scentless chamomile, Matricaria inodora)", "test": "Test D pre-/postemergence: chamomile", "method_in_brief": "as §1"}, "[3]": {"system": "bermudagrass (Cynodon dactylon)", "test": "Test C pre-/postemergence: bermudagrass", "method_in_brief": "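Preemergence on seeds in loam/sand, postemergence on 2–18 cm (1–4-leaf) plants in peat-based medium; compounds in non-phytotoxic solvent with surfactant. After 13–15 days in greenhouse, visual rating versus controls, 0 (no effect) to 100 (complete control).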"}, "[4]": {"system": "sedge, umbrella (small-flower umbrella sedge Cyperus difformis)", "test": "Test B flooded paddy: sedge, umbrella", "details": "Flood; 250 g ai/ha; applied to paddy water at 2-leaf stage; visually evaluated after 13 to 15 days", "method_in_brief": "(§2)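 Response scored visually, 0–100 relative to controls, 13–15 days after the compound was applied into paddy water; plants were at the 2-leaf stage in pots kept flooded to 3 cm.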"}, "[5]": {"system": "lambsquarters (Chenopodium album)", "test": "Test D pre-/postemergence: lambsquarters", "method_in_brief": "as §1"}, "[6]": {"system": "mustard, wild (wild mustard, Sinapis arvensis)", "test": "Test D pre-/postemergence: mustard, wild", "method_in_brief": "as §1"}, "[7]": {"system": "ducksalad (Heteranthera limosa)", "test": "Test B flooded paddy: ducksalad", "details": "Flood; 250 g ai/ha; applied to paddy water at 2-leaf stage; visually evaluated after 13 to 15 days", "method_in_brief": "as §2"}, "[8]": {"system": "wheat, winter (winter wheat, Triticum aestivum)", "test": "Test D pre-/postemergence: wheat, winter", "method_in_brief": "as §1"}, "[9]": {"details": "Postemergence, 31 g ai/ha, scale 0 to 100 (0 no effect, 100 complete control)"}, "[10]": {"details": "Postemergence, 62 g ai/ha, scale 0 to 100 (0 no effect, 100 complete control)"}, "[11]": {"details": "Postemergence, 125 g ai/ha, scale 0 to 100, 0 no effect, 100 complete control"}, "[12]": {"details": "Postemergence, 250 g ai/ha, scale 0 to 100 (0 no effect, 100 complete control)"}, "[13]": {"details": "Postemergence, 16 g ai/ha, scale 0 to 100"}, "[14]": {"details": "Preemergence, 16 g ai/ha, scale 0 to 100 (0 no effect, 100 complete control)"}, "[15]": {"details": "Preemergence, 31 g ai/ha, scale 0 to 100 (0 no effect, 100 complete control)"}, "[16]": {"details": "Preemergence, 62 g ai/ha, scale 0 to 100"}, "[17]": {"details": "Preemergence, 125 g ai/ha, scale 0 to 100"}, "[18]": {"details": "Preemergence, 250 g ai/ha, scale 0 to 100"}}, "data": [{"smiles": "CCOc1nn(-c2ccc(F)cc2)nc1Cc1ccnc(C(F)F)c1", "note": "[Compound 195]", "values": [{"measurement": "Plant response rating: Buckwheat, Wild", "setting": "[1]; [9]", "value": 20}, {"measurement": "Plant response rating: Buckwheat, Wild", "setting": "[1]; [10]", "value": 30}, {"measurement": "Plant response rating: Buckwheat, Wild", "setting": "[1]; [11]", "value": 35}, {"measurement": "Plant response rating: Buckwheat, Wild", "setting": "[1]; [12]", "value": 65}, {"measurement": "Plant response rating, Buckwheat, Wild", "setting": "[1]; [13]", "value": 15}, {"measurement": "Plant response rating, Buckwheat, Wild", "setting": "[1]; [14]", "value": 0}, {"measurement": "Plant response rating, Buckwheat, Wild", "setting": "[1]; [15]", "value": 0}, {"measurement": "Plant response rating, Buckwheat, Wild", "setting": "[1]; [16]", "value": 20}, {"measurement": "Plant response rating, Buckwheat, Wild", "setting": "[1]; [17]", "value": 20}, {"measurement": "Plant response rating, Buckwheat, Wild", "setting": "[1]; [18]", "value": 40}, {"measurement": "Plant response rating: Chamomile", "setting": "[2]; [9]", "value": 20}, {"measurement": "Plant response rating: Chamomile", "setting": "[2]; [10]", "value": 20}, {"measurement": "Plant response rating: Chamomile", "setting": "[2]; [11]", "value": 20}, {"measurement": "Plant response rating: Chamomile", "setting": "[2]; [12]", "value": 50}, {"measurement": "Plant response rating, Chamomile", "setting": "[2]; [13]", "value": 20}, {"measurement": "Plant response rating, Chamomile", "setting": "[2]; [14]", "value": 0}, {"measurement": "Plant response rating, Chamomile", "setting": "[2]; [15]", "value": 0}, {"measurement": "Plant response rating, Chamomile", "setting": "[2]; [16]", "value": 100}, {"measurement": "Plant response rating, Chamomile", "setting": "[2]; [17]", "value": 100}, {"measurement": "Plant response rating, Chamomile", "setting": "[2]; [18]", "value": 100}, {"measurement": "Plant response rating, Bermudagrass", "setting": "[3]; [9]", "value": 40}, {"measurement": "Plant response rating, Bermudagrass", "setting": "[3]; [10]", "value": 60}, {"measurement": "Plant response rating, Bermudagrass", "setting": "[3]; [11]", "value": 90}, {"measurement": "Plant response rating, Bermudagrass", "setting": "[3]; Postemergence, 250 g ai/ha, scale 0 to 100", "value": 95}, {"measurement": "Plant response rating, Bermudagrass", "setting": "[3]; Preemergence, 31 g ai/ha, scale 0 (no effect) to 100 (complete control)", "value": 98}, {"measurement": "Plant response rating, Bermudagrass", "setting": "[3]; Preemergence, 62 g ai/ha, scale of 0 to 100, 0 is no effect, 100 is complete control", "value": 98}, {"measurement": "Plant response rating, Bermudagrass", "setting": "[3]; Preemergence, 125 g ai/ha, scale 0 to 100, 0 no effect, 100 complete control", "value": 98}, {"measurement": "Plant response rating, Bermudagrass", "setting": "[3]; Preemergence, 250 g ai/ha, scale 0 to 100, 0 no effect, 100 complete control", "value": 98}, {"measurement": "Plant response rating, Sedge, Umbrella (0 to 100 scale, 0 is no effect, 100 is complete control)", "setting": "[4]", "value": 100}, {"measurement": "Plant response rating: Lambsquarters", "setting": "[5]; [9]", "value": 75}, {"measurement": "Plant response rating: Lambsquarters", "setting": "[5]; [10]", "value": 80}, {"measurement": "Plant response rating: Lambsquarters", "setting": "[5]; [11]", "value": 95}, {"measurement": "Plant response rating: Lambsquarters", "setting": "[5]; [12]", "value": 100}, {"measurement": "Plant response rating, Lambsquarters", "setting": "[5]; [13]", "value": 60}, {"measurement": "Plant response rating, Lambsquarters", "setting": "[5]; [14]", "value": 0}, {"measurement": "Plant response rating, Lambsquarters", "setting": "[5]; [15]", "value": 0}, {"measurement": "Plant response rating, Lambsquarters", "setting": "[5]; [16]", "value": 0}, {"measurement": "Plant response rating, Lambsquarters", "setting": "[5]; [17]", "value": 30}, {"measurement": "Plant response rating, Lambsquarters", "setting": "[5]; [18]", "value": 75}, {"measurement": "Plant response rating: Mustard, Wild", "setting": "[6]; [9]", "value": 80}, {"measurement": "Plant response rating: Mustard, Wild", "setting": "[6]; [10]", "value": 80}, {"measurement": "Plant response rating: Mustard, Wild", "setting": "[6]; [11]", "value": 95}, {"measurement": "Plant response rating: Mustard, Wild", "setting": "[6]; [12]", "value": 100}, {"measurement": "Plant response rating, Mustard, Wild", "setting": "[6]; [13]", "value": 60}, {"measurement": "Plant response rating, Mustard, Wild", "setting": "[6]; [14]", "value": 0}, {"measurement": "Plant response rating, Mustard, Wild", "setting": "[6]; [15]", "value": 10}, {"measurement": "Plant response rating, Mustard, Wild", "setting": "[6]; [16]", "value": 40}, {"measurement": "Plant response rating, Mustard, Wild", "setting": "[6]; [17]", "value": 100}, {"measurement": "Plant response rating, Mustard, Wild", "setting": "[6]; [18]", "value": 100}, {"measurement": "Plant response rating, Ducksalad (0 to 100 scale, 0 is no effect, 100 is complete control)", "setting": "[7]", "value": 100}, {"measurement": "Plant response rating: Wheat, Winter", "setting": "[8]; [9]", "value": 10}, {"measurement": "Plant response rating: Wheat, Winter", "setting": "[8]; [10]", "value": 10}, {"measurement": "Plant response rating: Wheat, Winter", "setting": "[8]; [11]", "value": 25}, {"measurement": "Plant response rating: Wheat, Winter", "setting": "[8]; [12]", "value": 40}, {"measurement": "Plant response rating, Wheat, Winter", "setting": "[8]; [13]", "value": 5}, {"measurement": "Plant response rating, Wheat, Winter", "setting": "[8]; [14]", "value": 0}, {"measurement": "Plant response rating, Wheat, Winter", "setting": "[8]; [15]", "value": 0}, {"measurement": "Plant response rating, Wheat, Winter", "setting": "[8]; [16]", "value": 0}, {"measurement": "Plant response rating, Wheat, Winter", "setting": "[8]; [17]", "value": 0}, {"measurement": "Plant response rating, Wheat, Winter", "setting": "[8]; [18]", "value": 10}]}]}
